Data from patent US20240368096A1 (Enanta Pharmaceuticals, Inc., priority 2022, published 2024).

test system: HBV; assay: HBV infection in HepG2-NTCP cells (HBeAg AlphaLISA in supernatants); format: cell-based; details: Hepatitis B virus, 192 h; HBV infection of HepG2-NTCP cells; HBeAg in supernatants at day 8 post infection; read-out: Cellular EC50
How it was run: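 HepG2-NTCP A3 cells were pre-incubated 2 h with 3-fold serially diluted compounds, then infected with HBV at 2000 GE/cell with 4% PEG (0.5% DMSO final). After washing on day 1, cells stayed in 2.5% DMSO medium; supernatant HBeAg measured by AlphaLISA on day 8, EC50 versus DMSO controls.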

EC50 [nM] | SMILES
100 to 1000 | CN1[C@H](C2CCCCC2)CN(c2ccccc2)c2cc(Cl)c(-c3cnc(O)c(C(=O)O)c3)cc2S1(=O)=O [Example 193]
100 to 1000 | CN1[C@H](C2CCCCC2)CN(c2ccccc2)c2cc(Cl)c(-c3cc(C(=O)O)c4ccccc4c3)cc2S1(=O)=O [Example 196]
> 1000 | CN1[C@H](C2CCCCC2)CN(c2ccccc2)c2cc(Cl)c(-c3ccc4c(c3)C(=O)NC4=O)cc2S1(=O)=O [Example 197]
100 to 1000 | CN1[C@H](C2CCCCC2)CN(c2ccccc2)c2cc(Cl)c(-c3ccc4c(c3)S(=O)(=O)NC4=O)cc2S1(=O)=O [Example 198]
100 to 1000 | CN1[C@H](C2CCCCC2)CN(c2ccccc2)c2cc(Cl)c(-c3ccc(F)c(S(N)(=O)=O)c3)cc2S1(=O)=O [Example 199]
100 to 1000 | CN1[C@H](C2CCCCC2)CN(c2ccccc2)c2cc(Cl)c(-c3ccc(Cl)c(S(N)(=O)=O)c3)cc2S1(=O)=O [Example 200]
100 to 1000 | CN1[C@H](C2CCCCC2)CN(c2ccccc2)c2cc(Cl)c(-c3ccc4oncc4c3)cc2S1(=O)=O [Example 202]
< 100 | CN1[C@H](C2CCC2)CN(c2ccccc2)c2cc(Cl)c(-c3ccc([N+](=O)[O-])c(C(=O)O)c3)cc2S1(=O)=O [Example 203]
< 100 | CN1[C@H](C2CCC2)CN(c2ccccc2)c2cc(Cl)c(-c3ccc(C(F)(F)F)c(C(=O)O)c3)cc2S1(=O)=O [Example 204]
< 100 | CC(C)C[C@@H]1CN(c2ccccc2)c2cc(Cl)c(-c3cccc(C(=O)C(=O)O)c3)cc2S(=O)(=O)N1C [Example 205, (R)-2-(3-(7-chloro-3-isobutyl-2-methyl-1,1-dioxido-5-phenyl-2,3,4,5-tetrahydrobenzo[f][1,2,5]thiadiazepin-8-yl)phenyl)-2-oxoacetic acid]
< 100 | CN1[C@H](C2CCC2)CN(c2ccccc2)c2cc(Cl)c(-c3cccc(C(=O)C(=O)O)c3)cc2S1(=O)=O [Example 206]
< 100 | CN1[C@H](C2CCCCC2)CN(c2ccccc2)c2cc(Cl)c(-c3cccc(C(=O)C(=O)O)c3)cc2S1(=O)=O [Example 207]
> 1000 | CN1[C@H](C2CCCCC2)CN(c2ccccc2)c2cc(Cl)c(-c3cc(C(=O)O)c4cn[nH]c4c3)cc2S1(=O)=O [Example 208, (R)-6-(7-chloro-3-cyclohexyl-2-methyl-1,1-dioxido-5-phenyl-2,3,4,5-tetrahydrobenzo[f][1,2,5]thiadiazepin-8-yl)-1H-indazole-4-carboxylic acid]
100 to 1000 | CN1[C@H](C2CCCCC2)CN(c2ccccc2)c2cc(Cl)c(-c3cc(C(=O)O)c4cc[nH]c4c3)cc2S1(=O)=O [Example 209]
100 to 1000 | CN1[C@H](C2CCCCC2)CN(c2ccccc2)c2cc(Cl)c(-c3cc(C(=O)O)c4ncccc4c3)cc2S1(=O)=O [Example 210]
100 to 1000 | CN1[C@H](C2CCCCC2)CN(c2ccccc2)c2cc(Cl)c(-c3cc(C(=O)O)c4nccn4c3)cc2S1(=O)=O [Example 211]
> 1000 | CC(C)C[C@@H]1CN(c2ccccc2)c2cc(Cl)c(-c3ccc4[nH]cc(C(=O)O)c4c3)cc2S(=O)(=O)N1C [Example 212]
100 to 1000 | CN1[C@H](C2CCCCC2)CN(c2ccccc2)c2cc(Cl)c(-c3ccc(C(=O)O)c(C(=O)O)c3)cc2S1(=O)=O [Example 213, (R)-4-(7-chloro-3-cyclohexyl-2-methyl-1,1-dioxido-5-phenyl-2,3,4,5-tetrahydrobenzo[f][1,2,5]thiadiazepin-8-yl)phthalic acid]
100 to 1000 | CC(C)C[C@@H]1CN(c2ccccc2)c2cc(Cl)c(-c3ccc(OCC(F)(F)F)c(C(=O)O)c3)cc2S(=O)(=O)N1C [Example 214, (R)-5-(7-chloro-3-isobutyl-2-methyl-1,1-dioxido-5-phenyl-2,3,4,5-tetrahydrobenzo[f] [1,2,5]thiadiazepin-8-yl)-2-(2,2,2-trifluoroethoxy)benzoic acid]
100 to 1000 | CC(C)C[C@@H]1CN(c2ccccc2)c2cc(Cl)c(-c3ccc(-c4ccccc4)c(C(=O)O)c3)cc2S(=O)(=O)N1C [Example 215, (R)-4-(7-chloro-3-isobutyl-2-methyl-1,1-dioxido-5-phenyl-2,3,4,5-tetrahydrobenzo[f][1,2,5]thiadiazepin-8-yl)-[1,1′-biphenyl]-2-carboxylic acid]

Second part, the molecule before the results:

SMILES | EC50 [nM]
CN1[C@H](C2CCCCC2)CN(c2ccccc2)c2cc(Cl)c(-c3ccc(OC(F)(F)F)c(C(=O)O)c3)cc2S1(=O)=O [Example 174] | 100 to 1000
CN1[C@H](C2CCCCC2)CN(c2ccccc2)c2cc(Cl)c(-c3cccc(S(N)(=O)=O)c3)cc2S1(=O)=O [Example 175] | > 1000
CN1[C@H](C2CCCCC2)CN(c2ccccc2)c2cc(F)c(-c3ccc(F)c(C(=O)O)c3)cc2S1(=O)=O [Example 176] | < 100
CN1[C@H](C2CCC2)CN(c2ccccc2)c2cc(Cl)c(-c3ccc(OC(F)(F)F)c(C(=O)O)c3)cc2S1(=O)=O [Example 177] | < 100
CN1[C@H](C2CCC2)CN(c2ccccc2)c2cc(Cl)c(-c3cccc(S(N)(=O)=O)c3)cc2S1(=O)=O [Example 178] | > 1000
COc1cc(-c2cc3c(cc2Cl)N(c2ccccc2)C[C@@H](CC(C)C)N(C)S3(=O)=O)cc(C(=O)O)c1F [Example 179, (R)-5-(7-chloro-3-isobutyl-2-methyl-1,1-dioxido-5-phenyl-2,3,4,5-tetrahydrobenzo[f][1,2,5]thiadiazepin-8-yl)-2-fluoro-3-methoxybenzoic acid] | 100 to 1000
CC(C)C[C@@H]1CN(c2ccccc2)c2cc(Cl)c(-c3ccc4o[nH]c(=O)c4c3)cc2S(=O)(=O)N1C [Example 180] | 100 to 1000
CC(C)C[C@@H]1CN(c2ccccc2)c2cc(Cl)c(-c3ccc4[nH]ncc4c3)cc2S(=O)(=O)N1C [Example 181] | > 1000
COC(=O)c1noc2ccc(-c3cc4c(cc3Cl)N(c3ccccc3)C[C@@H](CC(C)C)N(C)S4(=O)=O)cc12 [Example 182] | 100 to 1000
CC(C)C[C@@H]1CN(c2ccccc2)c2cc(Cl)c(-c3ccc([N+](=O)[O-])c(C(=O)O)c3)cc2S(=O)(=O)N1C [Example 183] | < 100
CC(C)C[C@@H]1CN(c2ccccc2)c2cc(Cl)c(-c3cccc(S(C)(=N)=O)c3)cc2S(=O)(=O)N1C (stereo partly shown) [Example 184] | > 1000
CC(C)C[C@@H]1CN(c2ccccc2)c2cc(Cl)c(-c3ccc4oncc4c3)cc2S(=O)(=O)N1C [Example 185] | 100 to 1000
CC(C)C[C@@H]1CN(c2ccccc2)c2cc(Cl)c(-c3ccc(C(F)(F)F)c(C(=O)O)c3)cc2S(=O)(=O)N1C [Example 186] | < 100
CC(C)C[C@@H]1CN(c2ccccc2)c2cc(Cl)c(-c3ccc(C#N)c(C(=O)O)c3)cc2S(=O)(=O)N1C [Example 187] | 100 to 1000
CN1[C@H](C2CCCCC2)CN(c2ccccc2)c2cc(Cl)c(-c3ccc([N+](=O)[O-])c(C(=O)O)c3)cc2S1(=O)=O [Example 189, (R)-5-(7-chloro-3-cyclohexyl-2-methyl-1,1-dioxido-5-phenyl-2,3,4,5-tetrahydrobenzo[f][1,2,5]thiadiazepin-8-yl)-2-nitrobenzoic acid] | < 100
CN1[C@H](C2CCCCC2)CN(c2ccccc2)c2cc(Cl)c(-c3cc(F)c(N)c(C(=O)O)c3)cc2S1(=O)=O [Example 190] | 100 to 1000
COc1cc(-c2cc3c(cc2Cl)N(c2ccccc2)C[C@@H](C2CCCCC2)N(C)S3(=O)=O)cc(C(=O)O)c1N [Example 191] | < 100
